Measurements taken from patent publication US20090099136A1 (PHARMASSET, INC., priority 2007, published 2009).
Several values for one entry are separate records, joined by “and”; a condition that tells them apart may be missing. Identical values can stand only once.

Key:
NL43 wild type virus = format: cell-based, HIV; conditions: read-out: EC50 (P4) (WT)

| SMILES | Toxicity (Luciferase, 6d) (P4 CCR5-luc cells) | EC50 (NL43 wild type virus) |
| --- | --- | --- |
| CCCCCOC(=O)C(C)NP(=O)(OCC1OCC(n2cc(C)c(=O)[nH]c2=O)O1)Oc1ccccc1 (mixture of isomers) [Example 17] | >100 | 360 nM |
| CCCCCCOC(=O)C(C)NP(=O)(OCC1OCC(n2cc(C)c(=O)[nH]c2=O)O1)Oc1ccccc1 (mixture of isomers) [Example 18] |  | 740 nM and 410 nM |
| Cc1cn(C2COC(COP(=O)(NC(C)C(=O)OCc3ccc(F)cc3)Oc3ccccc3)O2)c(=O)[nH]c1=O (mixture of isomers) [Example 19] | >100 |  |
| CCOC(=O)C(C)NP(=O)(OCC1OCC(n2cc(C)c(=O)[nH]c2=O)O1)Oc1ccc(Cl)cc1 (mixture of isomers) [Example 20] | >100 | 270 nM |
| Cc1cn(C2COC(COP(=O)(NC(C)C(=O)OCc3ccccc3)Oc3ccccc3Cl)O2)c(=O)[nH]c1=O (mixture of isomers) [Example 25] | >100 | 260 nM |
| CCCCOC(=O)C(C)NP(=O)(OCC1OCC(n2cc(C)c(=O)[nH]c2=O)O1)Oc1ccc(Br)cc1 (mixture of isomers) [Example 28] | >100 | 1340 nM |
| COC(=O)C(CC(C)C)NP(=O)(OCC1OCC(n2cc(C)c(=O)[nH]c2=O)O1)Oc1ccccc1 (mixture of isomers) [Example 52] | >100 | 960 nM |
| Cc1cn(C2COC(COP(=O)(NC(C)C(=O)OCc3ccccc3)Oc3ccc(F)cc3)O2)c(=O)[nH]c1=O (mixture of isomers) [Example 67] | >100 | 1110 nM |
| Cc1cn(C2COC(COP(=O)(NC(C)C(=O)OC3CCCCC3)Oc3ccccc3)O2)c(=O)[nH]c1=O (mixture of isomers) [Example 72] | >100 | 2120 nM |
| Cc1cn(C2COC(COP(=O)(NC(C)C(=O)OC3CCCC3)Oc3ccccc3)O2)c(=O)[nH]c1=O (mixture of isomers) [Example 73] | >100 | 1030 nM |
| Cc1cn(C2COC(COP(=O)(NC(C)C(=O)OC3CCC3)Oc3ccc(F)cc3)O2)c(=O)[nH]c1=O (mixture of isomers) [Example 86] | >100 | 500 nM |
| Cc1cn(C2COC(COP(=O)(NC(C)C(=O)OC3CCC3)Oc3ccccc3)O2)c(=O)[nH]c1=O (mixture of isomers) [Example 95] | >100 | 450 nM |
| Cc1cn(C2COC(COP(=O)(NC(C)C(=O)OCC3CC3)Oc3ccccc3)O2)c(=O)[nH]c1=O (mixture of isomers) [Example 96] | >100 | 330 nM |
| Cc1cn(C2COC(COP(=O)(NC(C)C(=O)OCC3CCC3)Oc3ccccc3)O2)c(=O)[nH]c1=O (mixture of isomers) [Example 109] | >100 | 710 nM |
| Cc1cn(C2COC(COP(=O)(NC(CC(C)C)C(=O)OCC3CC3)Oc3ccccc3)O2)c(=O)[nH]c1=O (mixture of isomers) [Example 116] | >100 | 570 nM |
| Cc1cn(C2COC(COP(=O)(NC(C)C(=O)OCc3ccccc3)Oc3ccccc3)O2)c(=O)[nH]c1=O (mixture of isomers) [Example 119] | >100 | 1700 nM |
